# In PMC12317126 (Nature Communications, 2025):
# How the values were obtained:
# [1] = molecular target: T1, cystic fibrosis transmembrane conductance regulator (CFTR) (Homo sapiens, UniProt P13569, W401A); assay: inside-out patch-clamp, inhibition kinetics at […]; type: cell-based
# T1 construct: C-terminally GFP-fused CFTR in CHO-K1 cells
# [2] = molecular target: T2, cystic fibrosis transmembrane conductance regulator (CFTR) (Homo sapiens, UniProt P13569); assay: ATP hydrolysis of purified CFTR (kcat […] to […] per minute at […]); inside-out patch-clamp; type: biochemical
# T2 construct: WT human CFTR, PKA-phosphorylated
# T2 sequence (P13569 whole entry): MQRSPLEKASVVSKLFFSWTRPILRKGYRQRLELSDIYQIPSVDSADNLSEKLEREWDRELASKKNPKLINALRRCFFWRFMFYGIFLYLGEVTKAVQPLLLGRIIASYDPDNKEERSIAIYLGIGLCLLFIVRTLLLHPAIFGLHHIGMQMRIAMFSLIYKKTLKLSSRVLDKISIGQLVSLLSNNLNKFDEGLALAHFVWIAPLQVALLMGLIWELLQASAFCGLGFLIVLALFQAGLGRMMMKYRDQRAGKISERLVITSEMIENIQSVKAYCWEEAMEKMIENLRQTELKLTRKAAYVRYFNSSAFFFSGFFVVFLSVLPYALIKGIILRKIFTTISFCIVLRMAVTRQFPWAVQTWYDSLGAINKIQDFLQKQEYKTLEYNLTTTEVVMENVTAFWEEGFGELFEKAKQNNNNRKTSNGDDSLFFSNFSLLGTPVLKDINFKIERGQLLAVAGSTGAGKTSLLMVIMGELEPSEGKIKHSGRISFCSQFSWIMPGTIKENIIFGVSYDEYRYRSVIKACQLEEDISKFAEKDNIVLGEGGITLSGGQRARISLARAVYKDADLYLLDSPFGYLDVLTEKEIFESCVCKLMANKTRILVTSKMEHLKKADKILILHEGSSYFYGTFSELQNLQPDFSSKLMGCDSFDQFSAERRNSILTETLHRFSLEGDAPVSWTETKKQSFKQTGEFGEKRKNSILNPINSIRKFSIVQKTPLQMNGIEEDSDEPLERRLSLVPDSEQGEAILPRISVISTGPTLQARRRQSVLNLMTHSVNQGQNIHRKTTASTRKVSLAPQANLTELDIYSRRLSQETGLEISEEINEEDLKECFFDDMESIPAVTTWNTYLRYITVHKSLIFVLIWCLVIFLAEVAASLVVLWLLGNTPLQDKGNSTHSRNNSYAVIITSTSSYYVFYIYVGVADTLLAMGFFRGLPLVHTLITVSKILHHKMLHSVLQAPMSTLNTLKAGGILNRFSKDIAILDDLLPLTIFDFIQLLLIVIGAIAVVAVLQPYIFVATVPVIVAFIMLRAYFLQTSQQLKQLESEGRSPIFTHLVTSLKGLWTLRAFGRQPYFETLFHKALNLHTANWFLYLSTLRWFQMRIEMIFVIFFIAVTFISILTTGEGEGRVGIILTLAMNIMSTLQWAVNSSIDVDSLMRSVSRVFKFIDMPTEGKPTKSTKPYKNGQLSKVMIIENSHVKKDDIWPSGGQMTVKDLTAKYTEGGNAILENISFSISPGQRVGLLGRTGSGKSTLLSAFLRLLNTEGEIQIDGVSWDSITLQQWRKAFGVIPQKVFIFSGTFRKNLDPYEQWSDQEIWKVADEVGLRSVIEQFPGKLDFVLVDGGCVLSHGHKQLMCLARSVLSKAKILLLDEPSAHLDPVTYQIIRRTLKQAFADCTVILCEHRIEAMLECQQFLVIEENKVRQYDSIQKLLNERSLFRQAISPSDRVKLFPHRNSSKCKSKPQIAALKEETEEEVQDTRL
# T1 sequence (P13569 whole entry W401A, the tested form may be a part): as the sequence (P13569 whole entry) above, with W401A counted along it
inhibition at 10 µM [2],SMILES,"inside-out patch-clamp, inhibition kinetics at 10 μM [1]"
–,Cn1c(=O)c2c(-c3ccccc3)n3c(c2n(C)c1=O)[C@H](c1ccc(Br)o1)Oc1ccc(C(=O)O)cc1-3 [(R)-BPO-27],4.5 ± 0.8 s (t1/2 of inhibition at 10 µM)
72%,O=C(O)c1ccc(/C=C2\SC(=S)N(c3cccc(C(F)(F)F)c3)C2=O)cc1 [CFTRinh-172],–
